According to ChEMBL document CHEMBL1129522, “Inhibitors of acyl-CoA:cholesterol O-acyltransferase. 17. Structure-activity relationships of several series of compounds derived from N-chlorosulfonyl isocyanate” (J Med Chem, 1996):
Where “and” joins values, the source holds several entries; their conditions need not be identical. Equal values may be shown once.

Legend:
[1] = biological target: T1, Sterol O-acyltransferase 1 (Rattus norvegicus, UniProt O70536); experiment: In vitro inhibitory activity against acyl coenzyme A:cholesterol acyltransferase 1 in microsomes of rat liver
T1 sequence (O70536 whole entry): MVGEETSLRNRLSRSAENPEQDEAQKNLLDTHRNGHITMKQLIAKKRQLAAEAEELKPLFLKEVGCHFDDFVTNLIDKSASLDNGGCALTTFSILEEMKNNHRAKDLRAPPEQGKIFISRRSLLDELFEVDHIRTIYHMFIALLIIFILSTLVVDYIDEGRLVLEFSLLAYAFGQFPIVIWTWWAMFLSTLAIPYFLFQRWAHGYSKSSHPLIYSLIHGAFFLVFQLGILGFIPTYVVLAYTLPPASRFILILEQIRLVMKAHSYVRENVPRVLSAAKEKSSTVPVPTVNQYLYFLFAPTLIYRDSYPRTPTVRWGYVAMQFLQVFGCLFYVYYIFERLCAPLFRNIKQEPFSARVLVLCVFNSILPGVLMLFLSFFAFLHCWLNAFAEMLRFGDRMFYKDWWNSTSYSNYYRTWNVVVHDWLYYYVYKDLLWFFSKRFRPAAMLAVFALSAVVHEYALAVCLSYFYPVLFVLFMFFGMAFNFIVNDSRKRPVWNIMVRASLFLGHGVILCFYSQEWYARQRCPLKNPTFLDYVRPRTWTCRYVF

[2] = biological target: T2, Sterol O-acyltransferase 1 (Rattus norvegicus) (UniProt O70536); experiment: Chronic in vivo activity was measured by the concentration of high density lipoproteins (HDL) in cholesterol fed rats; format: functional, organism-based
T2 sequence (whole entry): T1 sequence (O70536 whole entry)

[3] = biological target: T2, Sterol O-acyltransferase 1 (Rattus norvegicus); experiment: Chronic in vivo activity was measured by the total cholesterol concentration levels in cholesterol fed rats; format: functional, organism-based
[4] = biological target: T2, Sterol O-acyltransferase 1 (Rattus norvegicus); experiment: Acute in vivo activity was measured by the total plasma cholesterol concentration levels(TC) at dose 50 mg/kg; format: functional, organism-based; parameters: dose 50 mg/kg
[5] = tested on: Rattus norvegicus; experiment: Acute in vivo activity measured by total plasma cholesterol concentration levels (TC) at 30 mg/kg dose; format: functional
[6] = biological target: T2, Sterol O-acyltransferase 1 (Rattus norvegicus); experiment: Acute in vivo activity was measured by the total plasma cholesterol concentration levels(TC) at dose 3 mg/kg; format: functional, organism-based; parameters: dose 3 mg/kg

SMILES	IC50 [1] [µM]	Delta HDL [2] [%]	Delta TC [3]	Delta TC [4] [%]	Delta TC [5] [%]	Delta TC [6]
Cc1cc(C(C)(C)C)c(OC(=O)NS(=O)(=O)NCC(c2ccccc2)c2ccccc2)c(C(C)(C)C)c1	24.4	144	-51%	-54		
CC(C)c1cccc(C(C)C)c1NC(=O)NS(=O)(=O)Nc1c(C(C)C)cccc1C(C)C	11	80	-37%	-54		
CCCCCCCCCCCCOS(=O)(=O)NC(=O)Oc1c(C(C)(C)C)cc(C)cc1C(C)(C)C	52	23	-33%		-65	-41%
CC(C)c1cc(C(C)C)c(NC(=O)NS(=O)(=O)Oc2c(C(C)C)cccc2C(C)C)c(C(C)C)c1	23	18	-59%		-68	-51%
COc1cc(OC)c(OS(=O)(=O)NC(=O)Oc2c(C(C)C)cccc2C(C)C)c(OC)c1	> 50	62	-37%		-61	-37%
CC(C)c1cc(C(C)C)c(OS(=O)(=O)NC(=O)Oc2c(C(C)C)cccc2C(C)C)c(C(C)C)c1	29	295	-61%		-67	-63%
CC(C)c1cccc(C(C)C)c1OC(=O)NS(=O)(=O)NC(c1ccccc1)c1ccccc1	10.6			46		
CC(C)c1cccc(C(C)C)c1NC(=O)NS(=O)(=O)N(Cc1ccccc1)C(C)C	0.4	150	-41%	-60		
CC(C)c1cccc(C(C)C)c1OC(=O)NS(=O)(=O)NCC(c1ccccc1)c1ccccc1	49			-29		
COc1cccc(OC)c1OS(=O)(=O)NC(=O)Oc1c(C(C)C)cccc1C(C)C	> 50	208	-62%		-70	-63%
CC(C)c1cccc(C(C)C)c1NC(=O)NS(=O)(=O)N(C(C)C)C(C)C	0.24	83	-38%	-59		
CC(C)c1cc(C(C)C)c(OC(=O)NS(=O)(=O)Oc2c(C(C)C)cc(C(C)C)cc2C(C)C)c(C(C)C)c1	22	129	-62%		-65	-32%
CC(C)c1cccc(C(C)C)c1NS(=O)(=O)NC(=O)Oc1c(C(C)C)cccc1C(C)C	25.8	388	-9%	-65		
COc1cc(C(C)C)c(OC(=O)NS(=O)(=O)Oc2c(C(C)C)cccc2C(C)C)c(C(C)C)c1	> 25	8	-12%		-56	1%
Cc1cc(C(C)(C)C)c(OC(=O)NS(=O)(=O)NC(c2ccccc2)c2ccccc2)c(C(C)(C)C)c1	11.5	100	-25%	-42		
CC(C)c1cccc(C(C)C)c1OC(=O)NS(=O)(=O)Nc1nc2ccccc2[nH]1	52			8		
CC(C)c1cccc(C(C)C)c1NC(=O)NS(=O)(=O)NC(c1ccccc1)c1ccccc1	4.1			-14		
CC(C)c1cccc(C(C)C)c1NC(=O)NS(=O)(=O)N(Cc1ccccc1)Cc1ccccc1	2.2	183	-28%		-36	-18%
CC(C)(C)c1cccc(C(C)(C)C)c1OC(=O)NS(=O)(=O)N(Cc1ccccc1)Cc1ccccc1	11			-3		

SMILES	IC50 [1] [µM]	Delta HDL [2] [%]	Delta TC [3]	Delta TC [4] [%]	Delta TC [5] [%]	Delta TC [6]
CC(C)(C)c1cccc(C(C)(C)C)c1OC(=O)NS(=O)(=O)Nc1ccccc1	19			-26		
CC(C)c1ccc(C(C)C)c(NC(=O)NS(=O)(=O)Oc2c(C(C)C)cccc2C(C)C)c1	8.7	5	-43%		-43	-1%
CC(C)c1cccc(C(C)C)c1OC(=O)NS(=O)(=O)Nc1ccccc1	38.1	240	-33%	-55		
CCCCCCCCCCCCOS(=O)(=O)NC(=O)Oc1c(C(C)C)cccc1C(C)C	13	31	-56%		-68	-63%
CC(C)c1cccc(C(C)C)c1OS(=O)(=O)NC(=O)Oc1c(C(C)(C)C)cc(C(C)(C)C)cc1C(C)(C)C	26	108	-78%		-76	-69%
CCCCN(CCCC)S(=O)(=O)NC(=O)Nc1c(C(C)C)cccc1C(C)C			-52% and -40%	-66		-64% and -52%
CCCN(CCC)S(=O)(=O)NC(=O)Nc1c(C(C)C)cccc1C(C)C	1.1	78	-53%		-60	-51%
Cc1cc(C(C)(C)C)c(OC(=O)NS(=O)(=O)Oc2c(C(C)C)cccc2C(C)C)c(C(C)(C)C)c1	7.7	205	-66%		-72	-52%
CC(C)c1cc(C(C)C)c(OC(=O)NS(=O)(=O)Oc2c(C(C)C)cccc2C(C)C)c(C(C)C)c1	14	153	-74%		-79	-57%
CC(C)c1cccc(C(C)C)c1OS(=O)(=O)NC(=O)Oc1c(C(C)C)c(C(C)C)c(F)c(C(C)C)c1C(C)C	13	208	-74%		-71	-47%
CC(C)(C)c1cccc(C(C)(C)C)c1OC(=O)NS(=O)(=O)NCC(c1ccccc1)c1ccccc1	21.8			-32		
CC(C)c1cc(O)cc(C(C)C)c1OC(=O)NS(=O)(=O)Oc1c(C(C)C)cccc1C(C)C	> 50	95	-25%		-55	-5%
CC(C)c1cccc(C(C)C)c1NC(=O)NS(=O)(=O)N(C(C)C)C(C)(C)C	0.14	43	-48%		-17	-55%
CCCCCCCCN(CCCCCCCC)S(=O)(=O)NC(=O)Nc1c(C(C)C)cccc1C(C)C	1.9	150	-56%		-53	-38%
CC(C)c1cccc(C(C)C)c1NC(=O)NS(=O)(=O)NC1c2ccccc2-c2ccccc21	25			-4		
Cc1cc(C(C)(C)C)c(OC(=O)NS(=O)(=O)Nc2ccccc2)c(C(C)(C)C)c1	23.4			-33		
Cc1cc(C(C)(C)C)c(OC(=O)NS(=O)(=O)Nc2c(C(C)C)cccc2C(C)C)c(C(C)(C)C)c1	13.5	156	-38%	-56		
CC(C)c1cccc(C(C)C)c1NC(=O)NS(=O)(=O)NCC(c1ccccc1)c1ccccc1	5.9			-20		
